Assays:
cultured FRDA cells = experiment: Cytoprotection of cultured FRDA cells depleted of glutathione; format: cell-based; conditions: pretreated then depleted of glutathione, read-out: Viable Cells (%)
Text: The cells were pretreated with the compounds and then depleted of glutathione. The cell viability is expressed as percentage of total number of cells.

[1] = test system: NADH oxidase, bovine heart mitochondrial complex (I, III, IV); experiment: NADH oxidase inhibition assay, submitochondrial particles; format: biochemical; conditions: for NADH oxidase activity (%): percentage of control; for IC50: beef heart SMP
Experimental: Beef heart mitochondria were obtained by a large-scale procedure. Inverted submitochondrial particles (SMP) were prepared by the method of Matsuno-Yagi and Hatefi (J. Biol. Chem. 260 (1985), p. 14424), and stored in a buffer containing 0.25 M sucrose and 10 mM Tris-HCl (pH 7.4) at −80° C. Inhibitory effects of compounds on bovine heart mitochondrial complex (I, III, IV) were evaluated. Maximal dimethyl sulfoxide concentration never exceeded 2% and had no influence on the control enzymatic activity. Beef heart SMP were diluted to 0.5 mg/mL. The enzymatic activities were assayed at 30° C. and monitored spectrophotometrically with a Beckman Coulter DU-530 (340 nm, c=6.22 mM^−1 cm^−1). NADH oxidase activity was determined in a reaction medium (2.5 mL) containing 50 mM Hepes, pH 7.5, containing 5 mM MgCl2. The final mitochondrial protein concentration was 30 μg. After the pre-equilibration of SMP with inhibitor for 5 min, the initial rates were calculated from the linear portion of the traces.
The activity is expressed as percentage of control.

[2] = test system: CoQ10 deficient lymphocyte cell line; experiment: Total intracellular ATP concentration assay (luciferin-luciferase); format: cell-based, human; conditions: 48 h, glucose free media with galactose
Text: The reductions of mitochondrial respiratory chain activity in CoQ10 deficient patients have been reported (Quinzii G M, Lopez L C, Von-Moltke J, Naini A, Krishna S, Schuelke M, Salviati L, Navas P, DiMauro S, and Hirano, M. Respiratory chain dysfunction and oxidative stress correlate with severity of primary CoQ10 deficiency. FASEB J. 2008; 22:1874-1885). The use of CoQ10 analogues to normalize and restore the respiratory chain activities could provide valuable therapeutic approach. We have evaluated the efficiency of oxidative phosphorylation in CoQ10 deficient lymphocyte (GM17932) in presence of tested CoQ10 analogues by measuring total cellular ATP content using (ViaLight® Plus ATP monitoring reagent kit, Lonza).
CoQ10 deficient lymphocyte and normal lymphocyte cell lines were obtained from Coriell Cell Repositories (Camden, N.J.; catalog number GM-17932, GM-158151, respectively). CoQ10 deficient lymphocytes were cultured under glucose-free media supplemented with galactose for two weeks to force energy production predominantly through oxidative phosphorylation rather than glycolysis (Quinzii et al.; Robinson B H, Petrova-Benedict R, Buncic J R, Wallace D C. Nonviability of cells with oxidative defects in galactose medium: A screening test for affected patient fibroblast. Biochem. Med. Metab. Biol. 1992; 48:122-126). Lymphocytes were cultured in RPMI 1640 medium glucose-free (Gibco, Grand Island, N.Y.) supplemented with 25 mM galactose, 2 mM glutamine and 1% penicillin-streptomycin (Cellgro), and 10%, dialyzed fetal bovine serum FBS 0.5 μg/mL) (GEMINI, Bio-Product), Briefly, lymphocytes (2×10^5 cell/mL), were plated (1 mL in 12-well plates) and treated with the test compounds at final concentrations of 5, 10 μM, and 25 μM and incubated at 37° C. for 48 h in a humidified atmosphere containing 5% CO2 in air. The test compounds were prepared by first making 20 mM stock solutions in DMSO. Cells were transferred (100 μL) to 96-well microtiter black-walled cell culture plates (Costar, Corning, N.Y.). The total intracellular ATP level was measured in a luminator (Clarity™ luminescence microplate reader) with the ATP Bioluminescence Assay Kit (ViaLight® Plus ATP monitoring reagent kit, Lonza) following the manufacturer's instructions. The standard curve of ATP was obtained by serial dilution of 1 mM ATP solution. After calibration against the ATP standard, the ATP content of the cell extract was determined and normalized for protein content in the cell.
To enforce the respiratory chain-dependent ATP synthesis, cells were grown for 48 hours in glucose free media supplemented with 25 mM galactose and 10% dialyzed fetal bovine serum (glucose concentration less than 0.5 μg/mL). FIG. 20 illustrates total intracellular ATP levels in CoQ10 deficient and normal lymphocytes measured using the luciferin-luciferase reaction. The levels of ATP shown in Table 1 are relative to the 100% value obtained for the CoQ10 deficient cells in FIG. 20.

Compound CCCCCCCCCCCCCCCCc1nc(N(C)C)nc(OC)c1O [drawing 131] has a viability at 0.1 µM (cultured FRDA cells) of 43.7 ± 3.1%, a viability at 0.5 µM (cultured FRDA cells) of 66.3 ± 1.5% and a viability at 2.5 µM (cultured FRDA cells) of 80.5 ± 5%.
For CCCCCCCCCCc1nc(N2C(C)CCC2C)nc(C)c1O (centres unmarked), the “NADH oxidase activity (%)” value ([1]; 1 μM) was 40% and the IC50 [1] was 10700 nM.
For COc1nc(N(C)C)nc(CCCCCCCCCCO)c1O [drawing 117], the “Total ATP concentration (% of control)” value ([2]; 5 μM) was 101.6 ± 1.4 % of control, the “Total ATP concentration (% of control)” value ([2]; 10 μM) was 96.8 ± 4.0 % of control and the “Total ATP concentration (% of control)” value ([2]; 25 μM) was 48.7 ± 0.8 % of control.
In the case of CCCCCCCCCCCCCCCCc1nc(N(C)C)nc(C)c1O [drawing 120], the “Total ATP concentration (% of control)” value ([2]; 5 μM) is reported as 111.5 ± 1.8 % of control, the “Total ATP concentration (% of control)” value ([2]; 10 μM) is reported as 106.9 ± 2.7 % of control and the “Total ATP concentration (% of control)” value ([2]; 25 μM) is reported as 101.6 ± 3.1 % of control.
CCCCCCCCCCCCCCCCc1nc(N(C)C)nc(OC)c1O [drawing 140] was tested, and the “NADH oxidase activity (%)” value ([1]; 1 μM) was 90%, the “NADH oxidase activity (%)” value ([1]; 2.5 μM) was 70% and the “NADH oxidase activity (%)” value ([1]; 5 μM) was 70%. For the same compound, the “NADH oxidase activity (%)” value ([1]; 10 μM) was 70%.
In the case of CCCCCCCCCCc1nc(N(C)C)nc(OC)c1O [drawing 121], the “Total ATP concentration (% of control)” value ([2]; 5 μM) is reported as 109.4 ± 5.0 % of control, the “Total ATP concentration (% of control)” value ([2]; 10 μM) is reported as 110.5 ± 6.5 % of control and the “Total ATP concentration (% of control)” value ([2]; 25 μM) is reported as 68.3 ± 2.7 % of control.
Compound CCCCCc1nc(N(C)C)nc(C)c1O [drawing 127] has a viability at 0.1 µM (cultured FRDA cells) of 46 ± 3.5%, a viability at 0.5 µM (cultured FRDA cells) of 78.7 ± 4% and a viability at 2.5 µM (cultured FRDA cells) of 81.3 ± 5.1%.
For CCCCCCCCCCc1nc(N(C)C)nc(OC)c1O [drawing 141], the “NADH oxidase activity (%)” value ([1]; 1 μM) was 38%, the “NADH oxidase activity (%)” value ([1]; 5 μM) was 38% and the “NADH oxidase activity (%)” value ([1]; 10 μM) was 10%.
For CCCCCCCCCCCCCCCCc1nc(N(C)C)nc(OC)c1O [drawing 122], the “Total ATP concentration (% of control)” value ([2]; 5 μM) was 122.3 ± 1.9 % of control, the “Total ATP concentration (% of control)” value ([2]; 10 μM) was 116.4 ± 0.5 % of control and the “Total ATP concentration (% of control)” value ([2]; 25 μM) was 113.0 ± 1.6 % of control.
In the case of Cc1nc(N(C)C)nc(CCCCCCCCCCO)c1O [drawing 134], the “NADH oxidase activity (%)” value ([1]; 1 μM) is reported as 50%, the “NADH oxidase activity (%)” value ([1]; 2.5 μM) is reported as 42% and the “NADH oxidase activity (%)” value ([1]; 5 μM) is reported as 22%. The “NADH oxidase activity (%)” value ([1]; 10 μM) was 15% and the IC50 [1] was 2230 nM.
Work on Cc1nc(N(C)C)nc(CCCCCCCCCCO)c1O [drawing 123] yielded a viability at 0.1 µM (cultured FRDA cells) of 63.6 ± 8.4%, a viability at 0.5 µM (cultured FRDA cells) of 83.5 ± 0.7% and a viability at 2.5 µM (cultured FRDA cells) of 82.7 ± 8.1%.
For CCCCCc1nc(N(C)C)nc(C)c1O [drawing 118], the “Total ATP concentration (% of control)” value ([2]; 5 μM) was 109.3 ± 2.3 % of control, the “Total ATP concentration (% of control)” value ([2]; 10 μM) was 111.1 ± 1.5 % of control and the “Total ATP concentration (% of control)” value ([2]; 25 μM) was 105.6 ± 2.4 % of control.
CCCCCc1nc(N(C)C)nc(C)c1O [drawing 132] was tested, and the “NADH oxidase activity (%)” value ([1]; 1 μM) was 85%.
CCCCCCCCCCc1nc(N(C)C)nc(OC)c1O [drawing 130] gave a viability at 0.1 µM (cultured FRDA cells) of 40.3 ± 1.5%, a viability at 0.5 µM (cultured FRDA cells) of 83.7 ± 1.5% and a viability at 2.5 µM (cultured FRDA cells) of 82.7 ± 2.5%.
Compound Cc1cc(N(C)C)nc(CCCCCCCCCCO)c1O [drawing 124] has a viability at 0.1 µM (cultured FRDA cells) of 54 ± 5.2%, a viability at 0.5 µM (cultured FRDA cells) of 76.5 ± 2.1% and a viability at 2.5 µM (cultured FRDA cells) of 81.7 ± 5%.
For CCCCCCCCCCCCCCCCc1nc(N(C)C)nc(C)c1O [drawing 129], the viability at 0.1 µM (cultured FRDA cells) was 61.3 ± 2.9%, the viability at 0.5 µM (cultured FRDA cells) was 84.4 ± 3.4% and the viability at 2.5 µM (cultured FRDA cells) was 88 ± 1%.
For CCCCCCCCCCCCCCCCc1nc(N(C)C)nc(C)c1O [drawing 139], the “NADH oxidase activity (%)” value ([1]; 1 μM) was 62%, the “NADH oxidase activity (%)” value ([1]; 2.5 μM) was 62% and the “NADH oxidase activity (%)” value ([1]; 5 μM) was 62%. The “NADH oxidase activity (%)” value ([1]; 10 μM) was 62%.
With CCCCCCCCCCc1nc(N(C)C)nc(C)c1O [drawing 133] the “NADH oxidase activity (%)” value ([1]; 1 μM) was 40% and the IC50 [1] was 829 nM.
COc1cc(N(C)C)nc(CCCCCCCCCCO)c1O showed a viability at 0.1 µM (cultured FRDA cells) of 33 ± 4.2%, a viability at 0.5 µM (cultured FRDA cells) of 28.3 ± 2.1% and a viability at 2.5 µM (cultured FRDA cells) of 29.5 ± 2.1%.
With Cc1nc(N(C)C)nc(CCCCCCCCCCO)c1O [drawing 116] the “Total ATP concentration (% of control)” value ([2]; 5 μM) was 102.4 ± 1.2 % of control, the “Total ATP concentration (% of control)” value ([2]; 10 μM) was 87.9 ± 4.3 % of control and the “Total ATP concentration (% of control)” value ([2]; 25 μM) was 46.1 ± 1.2 % of control.
In the case of CCCCCCCCCCc1nc(N(C)C)nc(C)c1O [drawing 119], the “Total ATP concentration (% of control)” value ([2]; 5 μM) is reported as 106.6 ± 2.7 % of control, the “Total ATP concentration (% of control)” value ([2]; 10 μM) is reported as 98.7 ± 1.1 % of control and the “Total ATP concentration (% of control)” value ([2]; 25 μM) is reported as 75.3 ± 1.8 % of control.
Work on CCCCCCCCCCc1nc(N(C)C)nc(C)c1O [drawing 128] yielded a viability at 0.1 µM (cultured FRDA cells) of 54.5 ± 3.3%, a viability at 0.5 µM (cultured FRDA cells) of 84 ± 3.6% and a viability at 2.5 µM (cultured FRDA cells) of 76.3 ± 5%.
With Cc1nc2c(c(CC[C@](C)(O)CCC[C@H](C)CCC[C@H](C)CCCC(C)C)c1O)CCN2C [drawing 136] the “NADH oxidase activity (%)” value ([1]; 1 μM) was 50%, the “NADH oxidase activity (%)” value ([1]; 2.5 μM) was 50% and the “NADH oxidase activity (%)” value ([1]; 10 μM) was 15%.
With COc1nc(N(C)C)nc(CCCCCCCCCCO)c1O [drawing 138] the “NADH oxidase activity (%)” value ([1]; 1 μM) was 62.5%, the “NADH oxidase activity (%)” value ([1]; 2.5 μM) was 40% and the “NADH oxidase activity (%)” value ([1]; 5 μM) was 50%. The “NADH oxidase activity (%)” value ([1]; 10 μM) was 25%.
In the case of COc1nc(N(C)C)nc(CCCCCCCCCCO)c1O [drawing 125], the viability at 0.1 µM (cultured FRDA cells) is reported as 55.6 ± 5.7%, the viability at 0.5 µM (cultured FRDA cells) is reported as 80 ± 4% and the viability at 2.5 µM (cultured FRDA cells) is reported as 78.3 ± 7.5%.
For Cc1cc(N(C)C)nc(CCCCCCCCCCO)c1O [drawing 137], the “NADH oxidase activity (%)” value ([1]; 1 μM) was 90%, the “NADH oxidase activity (%)” value ([1]; 2.5 μM) was 58% and the “NADH oxidase activity (%)” value ([1]; 5 μM) was 38%. For the same compound, the “NADH oxidase activity (%)” value ([1]; 10 μM) was 20%.

From patent US8952025B2, “Multifunctional radical quenchers and their uses” (Arizona Board of Regents, A Body Corporate of the State of …, priority 2010, dated 2015)
